Measured values published in US6667307B2, “Sulfonylalkanoylamino hydroxyethylamino sulfonamide retroviral protease inhibitors” (G.D. Searle & Co., priority 1995, dated 2003).

Columns and labels:
HIV protease = target: T1, HIV protease (Human immunodeficiency virus type 1 group M subtype B, UniProt P04585); test: HIV protease enzyme assay (fluorescence, peptide substrate); assay type: biochemical; conditions: HIV protease 12.3 nanomolar, substrate 80 μM, pH 6.4, ambient temperature
T1 construct: final enzyme concentration of 12.3 nanomolar, based on a molecular weight of 10,780
Excerpt: The compounds of the present invention are effective HIV protease inhibitors. Utilizing an enzyme assay as described below, the compounds set forth in the examples herein disclosed inhibited the HIV enzyme. The preferred compounds of the present invention and their calculated IC50 (inhibiting concentration 50%, i.e., the concentration at which the inhibitor compound reduces enzyme activity by 50%) values are shown in Table 9. The enzyme method is described below. The substrate is 2-Ile-Nle-Phe(p-NO2)-Gln-ArgNH2. The positive control is MVT-101 (Miller, M. et al, Science, 2, 1149 (1989)) The assay conditions are as follows:
20 mM sodium phosphate, pH 6.4
The above described substrate is dissolved in DMSO, then diluted 10 fold in assay buffer. Final substrate concentration in the assay is 80 μM. HIV protease is diluted in the assay buffer to a final enzyme concentration of 12.3 nanomolar, based on a molecular weight of 10,780.
The final concentration of DMSO is 14% and the final concentration of glycerol is 18%. The test compound is dissolved in DMSO and diluted in DMSO to 10× the test concentration; 10 μl of the enzyme preparation is added, the materials mixed and then the mixture is incubated at ambient temperature for 15 minutes. The enzyme reaction is initiated by the addition of 40 μl of substrate. The increase in fluorescence is monitored at 4 time points (0, 8, 16 and 24 minutes) at ambient temperature. Each assay is carried out in duplicate wells.

HIV-1 in CEM cells = test: CEM cell assay: HIV inhibition in acutely infected cells (tetrazolium/MTT colorimetric); assay type: cell-based; conditions: Human immunodeficiency virus 1, CCRF-CEM, 168 h, CEM cells acutely infected with HIV-1, 7 days, MTT readout
Procedure: The effectiveness of various compounds were determined in the above-described enzyme assay and in a CEM cell assay. The HIV inhibition assay method of acutely infected cell infected cells is an automated tetrazolium based colorimetric assay essentially that reported by Pauwles et al, J. Virol. Methods, 20 ≡, 309-321 (1988). Assays were performed in 96-well tissue culture plates. CEM cells, a CD4^+ cell line. were grown in RPMI-1640 medium (Gibco) supplemented with a 10% fetal calf serum and were then treated with polybrene (2 μg/ml). An 80 μl volume of medium containing 1×10^4 cells was dispensed into each well of the tissue culture plate. To each well was added a 100 μl volume of test compound dissolved in tissue culture medium (or medium without test compound as a control) to achieve the desired final concentration and the cells were incubated at 37° C. for 1 hour. A frozen culture of HIV-1 was diluted in culture medium to a concentration of 5×10^4 TCID50 per ml (TCID50=the dose of virus that infects 50% of cells in tissue culture), and a 20 μL volume of the virus sample (containing 1000 TCID50 of virus) was added to wells containing test compound and to wells containing only medium (infected control cells). Several wells received culture medium without virus (uninfected control cells). Likewise, the intrinsic toxicity of the test compound was determined by adding medium without virus to several wells containing test compound. In summary, the tissue culture plates contained the following experiments: [table] In experiments 2 and 4 the final concentrations of test compounds were 1, 10, 100 and 500 μg/ml. Either azidothymidine (AZT) or dideoxyinosine (ddI) was included as a positive drug control. […] DMSO was added to all control wells at an appropriate concentration. Following the addition of virus, cells were incubated at 37° C. in a humidified, 5% CO2 atmosphere for 7 days. Test compounds could be added on days 0, 2 and 5 if desired. On day 7, post-infection, the cells in each well were resuspended and a 100 μl sample of each cell suspension was removed for assay. A 20 μL volume of a 5 mg/ml solution of 3-(4,5-dimethylthiazol-2-yl)-2,5-diphenyltetrazolium bromide (MTT) was added to each 100 μL cell suspension, and the cells were incubated for 4 hours at […] in a 5% CO2 environment. […] To each sample was added 100 μl of 10% sodium dodecylsulfate in 0.01 N HCl to lyse the cells, and samples were incubated overnight. The absorbance at 590 nm was determined for each sample using a Molecular Devices microplate reader. Absorbance values for each set of wells is compared to assess viral control infection, uninfected control cell response as well as test compound by cytotoxicity and antiviral efficacy.

Compound | IC50 (HIV protease) [nM] | EC50 (HIV-1 in CEM cells) [nM] | melting point [°C]
CC(C)CN(C[C@@H](O)[C@H](Cc1ccccc1)NC(=O)[C@H](C)C[S+](C)[O-])S(=O)(=O)c1ccc2c(c1)OCO2 (single isomer, unassigned) [Entry 6] | 7 | – | –
CC(C)CN(C[C@@H](O)[C@H](Cc1ccccc1)NC(=O)[C@H](C)CS(C)(=O)=O)S(=O)(=O)c1ccc2c(c1)OCO2 [Entry 1] | 2 | 20 | –
CC(C)CN(C[C@@H](O)[C@H](Cc1ccccc1)NC(=O)[C@H](C)CS(C)(=O)=O)S(=O)(=O)c1ccc2c(c1)CCO2 [Entry 2] | 2 | 28 | –
CC(C)CN(C[C@@H](O)[C@H](Cc1ccccc1)NC(=O)[C@H](C)CS(C)(=O)=O)S(=O)(=O)c1ccc2ncsc2c1 [Entry 3] | 3 | 26 | –
CC(C)CN(C[C@@H](O)[C@H](Cc1ccccc1)NC(=O)[C@H](C)CS(C)(=O)=O)S(=O)(=O)c1ccc2c(c1)OCCO2 [Entry 4] | 2 | 12 | –
CC(C)CN(C[C@@H](O)[C@H](Cc1ccccc1)NC(=O)[C@H](C)C[S+](C)[O-])S(=O)(=O)c1ccc2c(c1)OCO2 (stereo partly drawn) [Entry 5] | 2 | 52 | –
CC(C)CN(C[C@@H](O)[C@H](Cc1ccccc1)NC(=O)[C@H](C)CS(C)(=O)=O)S(=O)(=O)c1ccc2c(c1)OCO2 [Example 47, N-[2R-hydroxy-3-[(2-methylpropyl)[(1,3-benzodioxol-5-yl)sulfonyl]amino]-1S-(phenylmethyl)propyl]-2S-methyl-3-(methylsulfonyl)propanamide] | – | – | 131.8 to 133.8
